Type in all cases: functional
The species named for test [1] is Cavia porcellus. Nature of the test: Inhibitory activity of the Compound was tested against U-46619 induced contraction of guinea pig trachea at 2*10e-5 M concentration.
For test [2], the species on record is Cavia porcellus. The test is described as follows: Inhibitory activity of the Compound was tested against LTD4 induced contraction of guinea pig trachea at 2*10e-5 M concentration.
The species entered for test [3] is Cavia porcellus. The test is described as follows: Inhibitory activity of the Compound was tested against U-46619 induced contraction of guinea pig trachea at 1*10e-5 M concentration.
Test [4] is filed under the species Cavia porcellus. Nature of the test: Inhibitory activity of the Compound was tested against LTD4 induced contraction of guinea pig trachea at 2*10e-7 M concentration.
The species named for test [5] is Cavia porcellus. Nature of the test: Inhibitory concentration of the Compound was tested against LTD4 induced contraction of guinea pig trachea.
Test [6] is filed under the species Cavia porcellus. The test is described as follows: Inhibitory activity of the Compound was tested against LTD4 induced contraction of guinea pig trachea at 2*10e-6 M concentration.
For test [7], the species on record is Cavia porcellus. The test is described as follows: Inhibitory activity of the Compound was tested against LTD4 induced contraction of guinea pig trachea at 1*10e-6 M concentration.
The species named for test [8] is Cavia porcellus. The test is described as follows: Inhibitory activity of the Compound was tested against U-46619 induced contraction of guinea pig trachea at 3*10e-7 M concentration.
For test [9], the species on record is Cavia porcellus. Nature of the test: Inhibitory activity of the Compound was tested against LTD4 induced contraction of guinea pig trachea at 3*10e-7 M concentration.
For test [10], the species on record is Cavia porcellus. The test is described as follows: Inhibitory activity of the Compound was tested against U-46619 induced contraction of guinea pig trachea at 1*10e-6 M concentration.
The species entered for test [11] is Cavia porcellus. Nature of the test: Inhibitory activity of the Compound was tested against U-46619 induced contraction of guinea pig trachea.
The species entered for test [12] is Cavia porcellus. Nature of the test: Inhibitory activity of the Compound was tested against U-46619 induced contraction of guinea pig trachea at 2*10e-6 M concentration.
Test [13] is filed under the species Cavia porcellus. The test is described as follows: Inhibitory activity of the Compound was tested against U-46619 induced contraction of guinea pig trachea at 3*10e-6 M concentration.
The species entered for test [14] is Cavia porcellus. The test is described as follows: Inhibitory activity of the Compound was tested against LTD4 induced contraction of guinea pig trachea at 3*10e-6 M concentration.
For test [15], the species on record is Cavia porcellus. Nature of the test: Inhibitory activity of the Compound was tested against U-46619 induced contraction of guinea pig trachea at 2 *10e-7 M concentration.
The species entered for test [16] is Cavia porcellus. The test is described as follows: Inhibitory activity of the Compound was tested against U-46619 induced contraction of 2*10e-5 M concentration.
The species entered for test [17] is Cavia porcellus. The test is described as follows: Inhibitory activity of the Compound was tested against U-46619 induced contraction of guinea pig trachea at 2*10e-7 M concentration.
Test [18] is filed under the species Cavia porcellus. Nature of the test: Inhibitory activity of the Compound was tested against LTD4 induced contraction of guinea pig trachea at 1*10e-5 concentration.
The species named for test [19] is Cavia porcellus. Nature of the test: Inhibitory activity of the Compound was tested against U-46619 induced contraction of guinea pig trachea at 2*10e-5 concentration.
For test [20], the species on record is Cavia porcellus. The test is described as follows: Inhibitory activity of the Compound was tested against LTD4 induced contraction of guinea pig trachea at 1*10e-5 M concentration.
Test [21] is filed under the species Cavia porcellus. Nature of the test: Inhibitory activity of the Compound was tested against U-46619 induced contraction of guinea pig trachea at 1*10e-4 M concentration.
For test [22], the species on record is Cavia porcellus. The test is described as follows: Inhibitory activity of the Compound was tested against LTD4 induced contraction of guinea pig trachea at 2*10e5- M concentration.
Test [23] is filed under the species Cavia porcellus. Nature of the test: Inhibitory activity of the Compound was tested against LTD4 induced contraction of guinea pig trachea at 1*10e-4 M concentration.
The species entered for test [24] is Cavia porcellus. The test is described as follows: Inhibitory activity of the Compound was tested against U-46619 induced contraction of guinea pig trachea at 3*10e-8 M concentration.

As a reminder, the Inhibition is how much of the control response was suppressed. Low readings indicate a weak effect, high ones a strong effect. `COC1(OC)C(=O)C(C/C=C(\C)CCC=C(C)C)=C(O)C(CC=C(C)C)=C1O`: the Inhibition in the test listed under Cavia porcellus [1] is 94.9%; in the test listed under Cavia porcellus [2], 63.6%.
Take `CCCC(=O)c1c(O)cc(O)cc1O`: the Inhibition in the test filed under Cavia porcellus [3] was 27.3%.
By IC50 is commonly meant the midpoint of a concentration-inhibition curve. A high value points to weaker potency. Take `CCC(=O)c1c(O)cc(O)c(C(=O)CC)c1O`: the Inhibition in the test listed under Cavia porcellus [1] was 53.4%; in the test listed under Cavia porcellus [4] it was 30.8%; in the test listed under Cavia porcellus [2] it was 97.1%; in the test filed under Cavia porcellus [6] it was 42.5%. Further, the IC50 in the test listed under Cavia porcellus [5] was found to be 12000 nM.
Regarding `CCC1(CC)C(=O)C(C(=O)C(C)C)=C(O)C(C(=O)C(C)C)=C1O`, the Inhibition turned out to be 87.8% in the test filed under Cavia porcellus [7], 49% in the test listed under Cavia porcellus [8], 44.9% in the test filed under Cavia porcellus [9] and 84.2% in the test listed under Cavia porcellus [10]. Also, the IC50 in the test filed under Cavia porcellus [5] was 350 nM; in the test filed under Cavia porcellus [11] it was 310 nM.
As to `CC(C)C(=O)C1=C(O)C(C)(C)C(O)=C(C(=O)C(C)C)C1=O`, the Inhibition in the test filed under Cavia porcellus [12] came to 61.2%; in the test filed under Cavia porcellus [4], 36.8%; in the test listed under Cavia porcellus [6] it was 60.7%; in the test listed under Cavia porcellus [13] it was 80.2%; in the test filed under Cavia porcellus [14], 87%; in the test listed under Cavia porcellus [15], 38.5%. Besides, the IC50 in the test listed under Cavia porcellus [5] amounted to 570 nM; in the test listed under Cavia porcellus [11], 580 nM.
Consider `CC(C)CC(=O)c1c(O)cc(O)cc1O`, for which the Inhibition in the test filed under Cavia porcellus [13] turned out to be 22.7%; in the test listed under Cavia porcellus [3], 96.6%. The IC50 in the test filed under Cavia porcellus [11] came to 4700 nM.
As for `CCCC(=O)c1c(O)cc(O)c(C(=O)CCC)c1O`, the Inhibition in the test filed under Cavia porcellus [12] came to 57%; in the test listed under Cavia porcellus [4], 12.5%; in the test filed under Cavia porcellus [2], 87%; in the test listed under Cavia porcellus [6] it was 59.4%; in the test filed under Cavia porcellus [16], 72.5%; in the test filed under Cavia porcellus [17] it was 8.4%. The IC50 in the test filed under Cavia porcellus [5] came out at 1400 nM; in the test listed under Cavia porcellus [11], 2700 nM.
With `CCCCCCCC(=O)c1c(O)cc(O)c(C(=O)CCCCCCC)c1O`, the Inhibition in the test filed under Cavia porcellus [1] is recorded as 15.1%; in the test filed under Cavia porcellus [2] it was 17.4%.
On to `CCCCC1(CCCC)C(=O)C(C(=O)C(C)C)=C(O)C(C(=O)C(C)C)=C1O`, for which the Inhibition in the test filed under Cavia porcellus [1] was found to be 91.6%; in the test listed under Cavia porcellus [2], 100%; in the test listed under Cavia porcellus [13], 58.6%; in the test listed under Cavia porcellus [14] it was 66.5%. Moreover, the results for the IC50 in the test listed under Cavia porcellus [5] and in the test listed under Cavia porcellus [11] were 1200 nM and 1800 nM, respectively.
With `CCCC1(CCC)C(=O)C(C(=O)C(C)C)=C(O)C(C(=O)C(C)C)=C1O`, the Inhibition in the test listed under Cavia porcellus [1] is 81.7%; in the test filed under Cavia porcellus [2], 88.5%; in the test filed under Cavia porcellus [13], 25.3%; in the test listed under Cavia porcellus [14], 28.5%. The half-inhibitory concentration (IC50) in the test listed under Cavia porcellus [5] is 5900 nM; in the test filed under Cavia porcellus [11], 6900 nM.
As to `CCCCCC1(CCCCC)C(=O)C(C(=O)C(C)C)=C(O)C(C(=O)C(C)C)=C1O`, the Inhibition in the test listed under Cavia porcellus [1] was 80.4%; in the test listed under Cavia porcellus [2], 95%; in the test listed under Cavia porcellus [13] it was 17%; in the test listed under Cavia porcellus [14], 58.3%. In addition, the IC50 in the test listed under Cavia porcellus [5] is 2300 nM; in the test filed under Cavia porcellus [11], 5600 nM.
With `CCC(C)C(=O)c1c(O)cc(O)c(C(=O)C(C)CC)c1O` (stereo not given), the Inhibition in the test listed under Cavia porcellus [1] is 98%; in the test listed under Cavia porcellus [12], 34.7%; in the test filed under Cavia porcellus [2], 80.1%; in the test filed under Cavia porcellus [6], 45.5%. Besides, the half-maximal inhibitory concentration (IC50) in the test filed under Cavia porcellus [5] came to 1400 nM; in the test listed under Cavia porcellus [11], 1700 nM.
With `CC(=O)c1c(O)cc(O)c(C(C)=O)c1O`, the values for the Inhibition in the test filed under Cavia porcellus [1] and in the test filed under Cavia porcellus [2] were 44.3% and 39.1%, respectively.
On to `CC(C)CC(=O)c1c(O)cc(O)c(C(=O)CC(C)C)c1O`, for which the Inhibition in the test filed under Cavia porcellus [1] was found to be 100%; in the test filed under Cavia porcellus [12] it was 42%; in the test listed under Cavia porcellus [4], 29.9%; in the test filed under Cavia porcellus [2] it was 100%; in the test listed under Cavia porcellus [6] it was 78.2%; in the test filed under Cavia porcellus [17], 22.6%. Also, the half-maximal inhibitory concentration (IC50) in the test listed under Cavia porcellus [5] was 560 nM; in the test listed under Cavia porcellus [11], 1500 nM.
In the case of `CCC(C)C(=O)c1c(O)cc(O)cc1O` (stereo not given), the Inhibition is listed as 13.8% in the test filed under Cavia porcellus [13], 25.4% in the test listed under Cavia porcellus [18] and 76.3% in the test filed under Cavia porcellus [3]. This molecule also registered an IC50 in the test listed under Cavia porcellus [11] of 6000 nM.
Consider `CCCCCC(=O)c1c(O)cc(O)cc1O`, for which the Inhibition in the test listed under Cavia porcellus [2] is recorded as 93.9%; in the test filed under Cavia porcellus [19], 100%; in the test filed under Cavia porcellus [20], 62.3%; in the test listed under Cavia porcellus [3] it was 56.9%. Moreover, the IC50 in the test listed under Cavia porcellus [5] was determined as 7600 nM; in the test filed under Cavia porcellus [11], 8900 nM.
For the molecule `CCCCCC(=O)c1c(O)cc(O)c(C(=O)CCCCC)c1O`, the figures for the Inhibition in the test listed under Cavia porcellus [1] and in the test filed under Cavia porcellus [2] were 25.9% and 43.3%, respectively.
Turning to `CC(C)=CCC/C(C)=C/COc1cc(O)c(C(=O)C(C)C)c(O)c1C`, the Inhibition in the test filed under Cavia porcellus [1] came out at 10.8%; in the test listed under Cavia porcellus [21], 50%; in the test listed under Cavia porcellus [22] it was 12.6%; in the test listed under Cavia porcellus [23] it was 50.9%.
As for `CC(C)C(=O)c1c(O)cc(O)c(C(=O)C(C)C)c1O`, the Inhibition in the test filed under Cavia porcellus [1] turned out to be 53.6%; in the test listed under Cavia porcellus [4], 28.9%; in the test filed under Cavia porcellus [2] it was 92.3%; in the test filed under Cavia porcellus [6] it was 48.5%. Besides, in the test listed under Cavia porcellus [5], the IC50 turned out to be 1200 nM.
In the test listed under Cavia porcellus [24], `CC(C)C(=O)c1c(C(C)C)nn2ccccc12` [IBUDILAST] registered an Inhibition of 85.4%.
`CC(C)C(=O)c1c(O)cc(O)cc1O` [PHLOROISOBUTYROPHENONE]: the figures for the Inhibition in the test listed under Cavia porcellus [13], in the test filed under Cavia porcellus [20] and in the test filed under Cavia porcellus [3] were 11%, 32% and 70.4%, respectively. Moreover, in the test listed under Cavia porcellus [11], the IC50 came out at 6600 nM.

These data come from ChEMBL document CHEMBL1126287, “Analogues of natural phloroglucinols as antagonists against both thromboxane A2 and leukotriene D4” (J Med Chem, 1992).
